Test results reported in PMC12646587, “Advanced cardiotoxicity profiling using field potential imaging with UHD-CMOS-MEA in human iPSC-derived cardiomyocytes” (Toxicological Sciences, 2025).
Where two headings read alike, the source gives them in different places.

Assays:
[1] = test system: human iPSC-derived cardiomyocytes; assay: Field potential imaging (FPI) with UHD-CMOS-MEA, acute drug treatment; assay type: cell-based; conditions: for significant changes in any of the measured parameters (17 beat parameters): 10, 100 μM; for BR (beat rate): arrows = direction, – = none; for FPI (concentration at which changes were detected): changed parameters in brackets in each cell
Method: Cryopreserved iCell Cardiomyocytes (FUJIFILM Cellular Dynamics, Inc.) were handled according to the supplier’s instructions. Cells were thawed in a 37 °C water bath for approximately 3 min and resuspended in iCell Thawing Medium to prepare a cell suspension at a final concentration of 1 × 10^7 cells/ml. A total of 10 µl of the cell suspension (100,000 cells per chip) was seeded directly onto the fibronectin-coated electrode area of each chip. Chips were incubated at 37 °C for 1 h to allow cell attachment, after which 1 ml of maintenance medium was gently added. […] Thereafter, medium exchanges were performed twice weekly by replacing half the medium volume.
Compounds were dissolved in culture medium containing 0.1% DMSO and administered cumulatively at increasing concentrations. Drug solutions were applied directly to the culture wells, and measurements were initiated 30 min after administration. […] All recordings were performed under spontaneous beating conditions, with no external pacing applied.
Recordings were performed at a sampling rate of 2 kHz, with a 2-min recording duration per condition. Data acquisition was controlled via proprietary software (Sony Semiconductor Solutions), and all raw signals were stored for offline analysis. All experiments were conducted in a humidified environment at 37 °C with 5% CO2, ensuring physiological conditions during both drug exposure and recording.
Spikes from hiPSC-derived cardiomyocytes were initially detected at each electrode using a voltage threshold of ±100 µV via BinViewer software (SCREEN Holdings Co., Ltd, Japan). The resulting spike data were then processed using a custom MATLAB (MathWorks, Natick, MA) script to perform beat detection. Firing count histograms were generated using a bin size of 0.5 ms, and peak detection within these histograms identified the timing and propagation duration of beats across the electrode array. For each electrode, the maximum spike amplitude and its corresponding peak timing were calculated to generate heat maps of field potential amplitude and activation timing. […]

[2] = test system: human iPSC-derived cardiomyocytes; assay: PCA of beat parameters: cardiotoxicity risk and mechanism classification; assay type: cell-based; conditions: for position in PCA space: across all tested concentrations
Method: Each parameter set was evaluated for its ability to separate cardiotoxic and non-cardiotoxic compounds while maintaining minimal variance among negative controls. […] To assess cardiotoxicity, PCA scores of test compounds were plotted in the PC space, and their positions were compared with the SD-defined zones of the negative control group. Risk levels were classified as follows: Low risk (within 1 SD), medium risk (between 1 and 2 SD), and high risk (beyond 2 SD). Dose-dependent cardiotoxicity potential was estimated based on displacement from the negative control cluster.
To establish a risk classification framework, the standard deviation (SD) range of negative control compounds in PCA space was used to define 3 zones: Within the SD range (low risk), between 1 and 2 SD (medium risk), and beyond 2 SD (high risk) (Fig. 6B). Risk levels derived from PCA distribution were compared with IC50 and Cmax values reported for each compound and associated ion channels (Table 5).

cardiomyocytes [3] = conditions: cited from earlier work
NaV = conditions: cited from earlier work
cardiomyocytes [4] = conditions: CTD90 ↑; ref Lu et al. 2019; cited from earlier work
hiPSC-CMs = assay: Conventional MEA recording (16-electrode Axion Maestro), acute exposure; assay type: cell-based, human
Method: To enable comparison with the UHD-CMOS-MEA recordings, conventional extracellular field potential recordings were performed using 16-electrode MEA plates on a commercially available MEA system (Axion Maestro, Axion Biosystems), in accordance with the general principles of the CiPA initiative. hiPSC-CMs were cultured and maintained on the MEA plates under spontaneous beating conditions at 37 °C. Recordings were conducted after 10 to 14 DIV, and data acquisition and beat detection were performed using the built-in algorithms of the AxIS software (Axion Biosystems), without the use of external pacing. […] Each compound was applied under acute exposure conditions, and field potential recordings were obtained for 30 min following drug administration.
To evaluate the measurement capabilities of a conventional MEA system, the same set of 7 compounds was tested using the 16-electrode Axion Maestro platform.

CaV = conditions: cited from earlier work
[5] = cited from earlier work
cardiomyocytes [6] = conditions: BR20 (20% reduction in beat rate), cited from earlier work
hERG = conditions: read-out: IC50 hERG; ref Clements et al. 2015; cited from earlier work
[7] = acute, statistically significant change vs before

CC1(C)S[C@@H]2[C@H](NC(=O)[C@H](N)c3ccc(O)cc3)C(=O)N2[C@H]1C(=O)O [Amoxicillin]
significant changes in any of the measured parameters (17 beat parameters) ([1]; acute): did not induce significant changes | position in PCA space [2]: remained near the origin

CC(=O)Oc1ccccc1C(=O)O [Aspirin]
significant changes in any of the measured parameters (17 beat parameters) ([1]; acute): did not induce significant changes | position in PCA space [2]: remained near the origin

CC(C)COCC(CN(Cc1ccccc1)c1ccccc1)N1CCCC1 (stereo not drawn) [Bepridil]
MEA assay (cardiomyocytes [3]; FPD, ref Kaneko et al. 2014): 10 ([Kaneko et al. 2014]) (FPD) µM | IC50 (NaV; ref Clements et al. 2015): 2.3 µM | HCA assay (cardiomyocytes [4]): 1.0 ([Lu et al. 2019]) (CTD90 ↑) µM | Amp. CV [1, 7]: decreased and ↓ | IBI (interbeat interval) [1, 7]: ↓ | IBI CV [1, 7]: decreased and ↓ | Veloc. CV [1, 7]: decreased and ↓ | Veloc. STV [1, 7]: ↓ | IBI (hiPSC-CMs; acute): statistically significant changes | IBI variability, amplitude variability, conduction velocity variability and STV of conduction (hiPSC-CMs; acute): not detected | magnitude of change in beat frequency and IBI (hiPSC-CMs; acute): less than 5% | IC50 (CaV; ref Clements et al. 2015): 1 µM | Cmax Free ([5]; ref Crumb et al. 2016): 0.032 ([Crumb et al. 2016]) μM | Impedance assay (cardiomyocytes [6]; ref Guo et al. 2013): 0.03 ([Guo et al. 2013]) (BR20) µM

COc1ccc([C@@H]2Sc3ccccc3N(CCN(C)C)C(=O)[C@@H]2OC(C)=O)cc1 [Diltiazem]
IBI (interbeat interval) [1, 7]: reduced and ↓ | BR (beat rate) [1, 7]: increased and ↑ | IBI (hiPSC-CMs; acute): shortened | beat frequency (hiPSC-CMs; acute): increased | field potential (spike) amplitude (hiPSC-CMs; acute): significant reduction

CC(C)N(CCC(C(N)=O)(c1ccccc1)c1ccccn1)C(C)C (stereo not drawn) [Disopyramide]
MEA assay (cardiomyocytes [3]; FPDc10 (10% prolongation of FPDc), ref Ando et al. 2017): 0.74 ([Ando et al. 2017]) (FPDc10) µM | IC50 (NaV; ref Kramer et al. 2013): 168 µM | HCA assay (cardiomyocytes [4]): 10 ([Lu et al. 2019]) (CTD90 ↑) µM | Amp. (amplitude) [1, 7]: ↓ | Area (propagation area) [1, 7]: ↓ | IBI (interbeat interval) [1, 7]: prolonged and ↑ | Veloc. (conduction velocity) [1, 7]: ↓ | BR (beat rate) [1, 7]: ↓ | FPI (concentration at which changes were detected) [1]: 1 (BR) μM | FPI PCA (concentration at which changes were detected) [2]: 1 µM | IC50 (CaV; ref Kramer et al. 2013): 1040 µM | Cmax Free ([5]; ref Liu et al. 2021): 0.7 ([Liu et al. 2021]) μM

CC(C)NCC(O)c1ccc(O)c(O)c1 (stereo not drawn) [Isoproterenol]
average number of excitation origins per beat ([1]; 10 nM, n = 6 wells): 1.51 ± 0.02 | total number of active electrodes ([1]; 30 nM, Before: 149,149.4 ± 3,090.5): 149,185.2 ± 2,882.6 | beating frequency ([1]; 30 nM, before 35.5 bpm): 57.0 bpm | average number of excitation origins per beat ([1]; 30 nM, n = 6 wells): 1.61 ± 0.02 | Area STV [1, 7]: decreased and ↓ | IBI (interbeat interval) [1, 7]: ↓ | BR (beat rate) [1, 7]: increased and ↑ | FPI (concentration at which changes were detected) [1]: 0.01 (BR, IBI) μM | FPI PCA (concentration at which changes were detected) [2]: 0.01 µM | Impedance assay (cardiomyocytes [6]; ref Doherty et al. 2015): 0.01 ([Doherty et al. 2015]) (BR20) µM

Cc1cccc(C)c1OCC(C)N (stereo not drawn) [Mexiletine]
MEA assay (cardiomyocytes [3]; Spike amp., ref Clements and Thomas 2014): 3.0 ([Clements and Thomas 2014]) (Spike amp.) µM | IC50 (NaV; ref Clements et al. 2015): 38 µM | beat-wise variability in conduction speed ([1]; 10 µM, post-treatment): increased variability | average conduction velocity ([1]; 10 µM, before 0.147 ± 0.004, n = 6 wells): 0.109 ± 0.009 m/s | proportion of the area with conduction velocity exceeding 0.3 m/s ([1]; 10 µM, before 4.9%): 0.6% | beating frequency ([1]; 10 µM, before 64.5 bpm): 31.5 bpm | number of active electrodes ([1]; 10 µM, before 115,437.9 ± 582.1): 93,595.6 ± 11,323.1 | Amp. (amplitude) [1, 7]: decreased and ↓ | Amp. CV [1, 7]: increased and ↑ | Area (propagation area) [1, 7]: decreased and ↓ | IBI (interbeat interval) [1, 7]: increase and ↑ | Veloc. (conduction velocity) [1, 7]: decreased and ↓ | BR (beat rate) [1, 7]: decreased and ↓ | FPI (concentration at which changes were detected) [1]: 10 (BR, IBI, Ampl. Area, Veloc.) μM | FPI PCA (concentration at which changes were detected) [2]: 1 µM | spontaneous beating (hiPSC-CMs; 10 μM): ceased entirely | IBI (hiPSC-CMs; acute): reached statistical significance | beat frequency (hiPSC-CMs; acute): reached statistical significance | conduction velocity (hiPSC-CMs; acute): not captured | field potential (spike) amplitude (hiPSC-CMs; acute): increase | magnitude of change in beat frequency and IBI (hiPSC-CMs; acute): 2.2% | propagation area (hiPSC-CMs; acute): not captured | IC50 (CaV; ref Clements et al. 2015): 125 µM | IC50 (hERG): 62.2 µM | Cmax Free ([5]; ref Crumb et al. 2016): 2.5 ([Crumb et al. 2016]) μM | Impedance assay (cardiomyocytes [6]; ref Guo et al. 2013): 3.0 ([Guo et al. 2013]) (BR20) µM

C=C[C@H]1C[N@@]2CC[C@H]1C[C@@H]2[C@@H](O)c1ccnc2ccc(OC)cc12 [Quinidine]
MEA assay (cardiomyocytes [3]; FPD, ref Harris et al. 2013): 0.3 ([Harris et al. 2013]) (FPD) µM | Amp. (amplitude) [1, 7]: decreased and ↓ | Area (propagation area) [1, 7]: decreased and ↓ | Area CV [1, 7]: increasing and ↑ | IBI (interbeat interval) [1, 7]: increasing and ↑ | BR (beat rate) [1, 7]: decreased and ↓ | position on the PCA plot relative to mechanism-of-action groups ([2]; 10 μM): plotted near compounds acting on hERG channels | IBI (hiPSC-CMs; acute): prolonged | beat frequency (hiPSC-CMs; acute): reduced | conduction velocity (hiPSC-CMs; acute): decreased | field potential (spike) amplitude (hiPSC-CMs; acute): decreased | propagation area (hiPSC-CMs; acute): decreased | Cmax Free ([5]; ref Blinova et al. 2018): 3 ([Blinova et al. 2018]) μM | Impedance assay (cardiomyocytes [6]; ref Guo et al. 2013): 10 ([Guo et al. 2013]) (BR20) µM

COc1ccc(CCN(C)CCCC(C#N)(c2ccc(OC)c(OC)c2)C(C)C)cc1OC (stereo not drawn) [Verapamil]
Amp. CV [1, 7]: ↓ | Amp. STV [1, 7]: ↓ | Dist Origin [1, 7]: reduced and ↓ | Dist Origin STV [1, 7]: ↓ | IBI (interbeat interval) [1, 7]: reduced and ↓ | No. of Origin [1, 7]: ↓ | BR (beat rate) [1, 7]: increased and ↑ | FPI (concentration at which changes were detected) [1]: 0.003 (IBI, Amp. STV, Dist Origins, Dist Origins STV) μM | IBI (hiPSC-CMs; acute): shortened | beat frequency (hiPSC-CMs; acute): increased | field potential (spike) amplitude (hiPSC-CMs; acute): decreasing trend
